Test results published in the supplement of paper PMC10307832.

Tests used:
Experiment in all cases: relative viability (nuclei count vs DMSO), 5 days (fraction); higher = more cells survive
[1] = compound: CN(C)C(=N)NC(=N)N [Metformin] + CCNC(=O)c1noc(-c2cc(C(C)C)c(O)cc2O)c1-c1ccc(CN2CCOCC2)cc1 [Luminespib] (partner 0.01 µM)
How it was run: (§1)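 Relative viability was taken as the ratio of nuclei in treated wells to nuclei in vehicle wells. Lung cancer cell lines in 1536-well plates received compounds by pin tool one day after seeding, either one drug alone or a fixed anchor-drug dose plus five library-drug doses (not always all listed) in √10 steps. Nuclei were counted on 4× images after 5 days of treatment, and values are medians of duplicate plates.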

[2] = compound: CN(C)C(=N)NC(=N)N [Metformin] + O=C(c1cc(Cc2n[nH]c(=O)c3ccccc23)ccc1F)N1CCN(C(=O)C2CC2)CC1 [Olaparib] (partner 8 µM)
How it was run: as §1

[3] = compound: N#CC1(c2ccc(NC(=O)c3cccnc3NCc3ccncc3)cc2)CCCC1 [Apatinib] + CS(=O)(=O)N1CCN(Cc2cc3nc(-c4cccc5[nH]ncc45)nc(N4CCOCC4)c3s2)CC1 [Pictilisib] (partner 1 µM)
How it was run: as §1

[4] = compound: N#CC1(c2ccc(NC(=O)c3cccnc3NCc3ccncc3)cc2)CCCC1 [Apatinib] + NC(=O)Nc1cc(-c2cccc(F)c2)sc1C(=O)N[C@H]1CCCNC1 [AZD7762] (partner 0.2 µM)
How it was run: as §1

Cell Line	relative viability ([1]; first compound 10 µM)	relative viability ([1]; first compound 31.62 µM)	relative viability ([1]; first compound 100 µM)	relative viability ([1]; first compound 316.23 µM)	relative viability ([1]; first compound 1000 µM)	relative viability ([2]; first compound 10 µM)	relative viability ([2]; first compound 31.62 µM)	relative viability ([2]; first compound 100 µM)	relative viability ([2]; first compound 316.23 µM)	relative viability ([2]; first compound 1000 µM)	relative viability ([3]; first compound 0.08 µM)	relative viability ([3]; first compound 0.253 µM)	relative viability ([3]; first compound 0.8 µM)	relative viability ([3]; first compound 2.53 µM)	relative viability ([3]; first compound 8 µM)	relative viability ([4]; first compound 0.08 µM)	relative viability ([4]; first compound 0.253 µM)	relative viability ([4]; first compound 0.8 µM)	relative viability ([4]; first compound 2.53 µM)	relative viability ([4]; first compound 8 µM)
NCI-H2228	0.133	0.185	0.157	0.165	0.209	0.399	0.344	0.483	0.802	0.578	0.338	0.417	0.451	0.355	0.539					
NCI-H1648							1.14	0.502	1.07	1.04						0.937	0.667	0.612	0.567	0.601
NCI-H1623	0.475	0.429	0.596	0.487	0.755															
NCI-H1563	0.588	0.629	0.577	0.407	0.584						0.644	0.656	0.62	0.644	0.632					
NCI-H1703						0.501	0.71	0.875	0.506	0.521	0.239	0.272	0.198	0.222	0.221	0.147	0.127	0.123	0.0918	0.127
NCI-H1299						0.867	0.924	0.941	0.873	0.933	0.882	0.88	0.738	0.646	0.406					
UMC-11	1.1	1.14	1.08	1.1	0.994	0.337	0.269	0.31	0.332	0.276	0.878	0.731	0.688	0.76	0.686					
SK-MES-1	0.83	0.889	0.95	0.747	0.744	0.305	0.352	0.406	0.381	0.363	0.421	0.3	0.326	0.37	0.32					
NCI-H520	0.265	0.224	0.211	0.223	0.23	0.276	0.264	0.276	0.274	0.259	0.281	0.268	0.301	0.314	0.275					
A549						0.281	0.308	0.324	0.269	0.368	0.651	0.626	0.421	0.488	0.406					
NCI-H2023	0.649	0.725	0.711	0.67	0.676	0.332	0.366	0.282	0.344	0.31	0.269	0.228	0.209	0.209	0.231					
SW 1573	0.266	0.255	0.51	0.157	0.153	0.441	0.468	0.471	0.381	0.352	0.588	0.476	0.548	0.517	0.535					
